The target in this test is T1, interaction between biotinylated human S100A9 and human RAGE-Fc (Homo sapiens, UniProt P06702).
T1 construct: made in house; host or cells: E. coli
T1 sequence (P06702 1-114): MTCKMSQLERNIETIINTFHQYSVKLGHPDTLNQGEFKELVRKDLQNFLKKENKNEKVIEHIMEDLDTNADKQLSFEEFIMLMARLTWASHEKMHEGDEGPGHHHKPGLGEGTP
The test is described as follows: AlphaScreen inhibition assay, biot-hS100A9:hRAGE-Fc. Format: binding. The following applies: biot-hS100A9 pre-incubated with compound 1 h, assay buffer with CaCl2 and ZnCl2. In short, it runs like this: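 Biotinylated human S100A9, preincubated with compound, binds human RAGE-Fc on protein A Acceptor beads in HBS-P with CaCl2 and ZnCl2; streptavidin Donor beads added, AlphaScreen signal read. Protein levels set by cross-titration; beads 20 μg/mL final. Percent inhibition versus DMSO control; IC50 from varied compound concentrations.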
(In general: Bead proximity is the source of the signal in Alpha formats.)

Our source for the IC50 values is patent US10385069B2, “Imidazo[2,1-B]thiazole and 5,6-dihydroimidazo[2,1-B]thiazole derivatives useful as S100-inhibitors” (Active Biotech AB, priority 2015, dated 2019).

As for `CC(C)(C)C1CCc2c(sc3nc(C(=O)O)c(CN4CCCCC4=O)n23)C1` (stereo not shown) [Example 244, 10-tert-Butyl-3-[(2-oxopiperidin-1-yl)methyl]-7-thia-2,5-diazatricyclo[6.4.0.0^2,6]dodeca-1(8),3,5-triene-4-carboxylic acid], the IC50 was 1130 nM.
To `Cc1c(C(=O)O)nc2sc3c(n12)CC(C)(C)CC3(C)C` [Example 245, 3,9,9,11,11-Pentamethyl-7-thia-2,5-diazatricyclo[6.4.0.0^2,6]dodeca-1(8),3,5-triene-4-carboxylic acid] belongs 270 nM; to `CC1(C)Cc2c(sc3nc(C(=O)O)c(CN4CCOCC4)n23)C(C)(C)C1` [Example 246, 9,9,11,11-Tetramethyl-3-(morpholin-4-ylmethyl)-7-thia-2,5-diazatricyclo[6.4.0.0^2,6]dodeca-1(8),3,5-triene-4-carboxylic acid], 600 nM; to `COc1ccccc1-c1c(C(=O)O)nc2sc3c(n12)CC(C)(C)CC3(C)C` [Example 247, 3-(2-Methoxyphenyl)-9,9,11,11-tetramethyl-7-thia-2,5-diazatricyclo[6.4.0.0^2,6]dodeca-1(8),3,5-triene-4-carboxylic acid], 1530 nM.
To `O=C(O)c1cn2c(n1)sc1c(Cl)c(N3CCCC3)ccc12` [Example 248, 9-Chloro-10-(pyrrolidin-1-yl)-7-thia-2,5-diazatricyclo[6.4.0.0^2,6]dodeca-1(8),3,5,9,11-pentaene-4-carboxylic acid] belongs 1000 nM.
For `CC(C)CC1(C(=O)O)CN2C(=N1)Sc1c2ccc(F)c1Cl` (stereo not shown) [Example 249, 9-Chloro-10-fluoro-4-(2-methylpropyl)-7-thia-2,5-diazatricyclo[6.4.0.0^2,6]dodeca-1(8),5,9,11-tetraene-4-carboxylic acid], the IC50 stood at 690 nM.
To `CC1(C(=O)O)CN2C(=N1)Sc1c2ccc(F)c1Cl` (stereo not shown) [Example 250, 9-Chloro-10-fluoro-4-methyl-7-thia-2,5-diazatricyclo[6.4.0.0^2,6]dodeca-1(8),5,9,11-tetraene-4-carboxylic acid] belongs 670 nM; to `O=C(O)c1cn2c(n1)sc1c(Cl)c(C3CC3)ccc12` [Example 252, 9-Chloro-10-cyclopropyl-7-thia-2,5-diazatricyclo[6.4.0.0^2,6]dodeca-1(8),3,5,9,11-pentaene-4-carboxylic acid], 290 nM; to `CC(C)(C)C1CCc2c(sc3nc(C(=O)O)c(Br)n23)C1` (stereo not shown) [Example 253, 3-Bromo-10-tert-butyl-7-thia-2,5-diazatricyclo[6.4.0.0^2,6]dodeca-1(8),3,5-triene-4-carboxylic acid], 1680 nM.
Take `COc1ccc(-c2c(C(=O)O)nc3sc4c(n23)CC(C)(C)CC4(C)C)cc1` [Example 254, 3-(4-Methoxyphenyl)-9,9,11,11-tetramethyl-7-thia-2,5-diazatricyclo[6.4.0.0^2,6]dodeca-1(8),3,5-triene-4-carboxylic acid]: the IC50 worked out at 1150 nM.
In the case of `CC(=O)NCc1c(C(=O)O)nc2sc3c(n12)CCC(C(C)(C)C)C3` (stereo not shown) [Example 255, 10-tert-Butyl-3-(acetamidomethyl)-7-thia-2,5-diazatricyclo[6.4.0.0^2,6]dodeca-1(8),3,5-triene-4-carboxylic acid], the IC50 stood at 1150 nM.
To `CC(C)(C)C1CCc2c(sc3nc(C(=O)O)c(CO)n23)C1` (stereo not shown) [Example 256, 10-tert-Butyl-3-(hydroxymethyl)-7-thia-2,5-diazatricyclo[6.4.0.0^2,6]dodeca-1(8),3,5-triene-4-carboxylic acid] belongs 500 nM.
To `CON(C)Cc1c(C(=O)O)nc2sc3c(n12)CCC(C(C)(C)C)C3` (stereo not shown) [Example 257, 10-tert-Butyl-3-{[methoxy(methyl)amino]methyl}-7-thia-2,5-diazatricyclo[6.4.0.0^2,6]dodeca-1(8),3,5-triene-4-carboxylic acid] belongs 890 nM.

For orientation: IC50 means the concentration needed to halve the response being measured.
